From ChEMBL document CHEMBL1144345, “Discovery of cell-permeable non-peptide inhibitors of beta-secretase by high-throughput docking and continuum electrostatics calculations” (J Med Chem, 2005)

Experiments:
[1] = Cytotoxic concentration against human and other tumor cell lines; format: functional
[2] = Effective concentration against Abeta(sw) peptide; format: functional
Beta-secretase (BACE) = Beta-secretase (BACE) (Homo sapiens, UniProt Q9Y5Z0+P56817); assay: Beta-secretase inhibitory activity as inhibition of secreted alkaline phosphatase in HEK293 cells expressing SEAP-APP fusion protein; format: functional, cell-based

| EC50 [2] [µM] | EC50 (Beta-secretase (BACE)) [µM] | SMILES | CC50 [1] [µM] |
| --- | --- | --- | --- |
| 2.6 |  | CCSc1nsc(NC(=O)Nc2cccc(C(C)=O)c2)n1 | 23.3 |
| 3.2 | 27 | COCCCNC(=O)c1cc(NC(=O)Nc2cc(C(F)(F)F)cc(C(F)(F)F)c2)ccc1N(C)C | 24.6 |
| 3 |  | CN(C)c1ccc(NC(=O)Nc2cc(C(F)(F)F)cc(C(F)(F)F)c2)cc1C(=O)NCCCN1CCOCC1 | 12.5 |
| 2.6 |  | CCOCCCNC(=O)c1cc(NC(=O)Nc2cccc(Cl)c2)ccc1N(C)C | 11.1 |
